We go through 1 molecule from patent US20210121438A1, “METHODS FOR TREATING OR PREVENTING CONFORMATION DISEASES AND METHODS FOR DRUG SCREENING” (GARAGE BRAIN SCIENCE CO., LTD, priority 2018, published 2021).

In one test the test system is SMNA7 cells. The test can be described thus: Morphology (neurite-like structure) of SMNA7 cells. To be noted: baicalein. Type of test: cell-based. The source says:
(§1) We investigate whether baicalein can act as a pharmacological chaperone to refold misfolded SMNA7 into a functional prion-like domain, as shown in FIG. 8 (FIG. 10a). […] PFN1 is a known SMN interactor in the cytosol. We further examined whether baicalein attenuated the degradation of the SMNA7 protein. […] We found baicalein increased the length of axons from NSC34 cells expressing SMNA7 by approximately 2-fold (FIG. 10g).

The target of the next test is T1, SMNA7 protein (Homo sapiens, UniProt Q16637).
T1 construct: expressed in transfected cells
The test can be described thus: SMNA7 protein degradation (Western blotting). To be noted: baicalein. Format: cell-based.
Description: as §1
(A western blot detects proteins with antibodies after separation by electrophoresis.)

The test system of a further test is SMA mice (Smn−/−SMN2+/−). The test can be described thus: Motor function tests in SMA mice (turnover, tube, negative geotaxis). Type of test: in vivo. The source says: Mice: A mouse model of SMA was produced by deleting exon 7 of the Smn gene and knock-in of the human SMN2 gene (Smn−/−SMN2+/−). We were able to generate a variant that presents a more severe disease symptomatology through back-crossing to obtain a more homogenous genetic background. This model of severe SMA harbors two copies of the SMN2 transgene (Smn−/−SMN2+/−). The mouse model of SMA was generated through crossing the heterozygous knockout mice (Smn+/−SMN2−/−) with the homozygous knockout mice carrying two copies of the SMN2 transgene (Smn−/−SMN2+/+). SMA mice were subjected to daily intraperitoneal injections of baicalein (40 mg/kg/d in alcohol) or alcohol alone (control) from birth and then subjected to motor function tests and survival analysis. Three behavioral tests, the turnover test, tube test and negative geotaxis test, were conducted to evaluate the motor function of mice with SMA (Smn−/−SMN2+/−) and heterozygous littermates (Smn+/−SMN2+/−), as previously described. In the turnover test, the time required for a mouse to right itself and place all four paws on the ground from a prone position was recorded (the cutoff time was 60 s). The tube test was used to determine hind limb strength according to the posture of the hind limbs and the tail; scores ranged from 0 (the worst) to 4 (the best). In the negative geotaxis test, mice were placed on a 45° incline with their head pointing downward. The responses (turning and climbing) were scored from 0 (the worst) to 4 (the best).
A mouse model of SMA received daily intraperitoneal injections of baicalein ([…]) from birth, and we then assessed the animals using motor function tests and survival analyses to determine whether the in vitro findings were recapitulated in a mouse model in vivo (FIG. 10i). However, after baicalein treatment, the functional performance of SMA mice, including righting time, tube score, and tilting score, was improved at the 6th postnatal day (p<0.05), and the results were similar to heterozygous littermates treated with or without baicalein. […] Our studies provide a method for restoring the functional SMN protein by modulating the folding of the SMNA7 C-terminus and SMA-associated mutants to ensure that the protein performs the cellular functions of full-length SMN.

In test [1] the test system is TDP-43 in cells expressing progeria proteins. The test can be described thus: Localization of TDP-43 in progeria-expressing cells (immunofluorescence). Type of test: cell-based. The protocol: Immunohistochemistry: Fluorescence staining was performed as described previously (Wang et al., 2012). Cells were transfected with or without plasmids or siRNAs and grown for 24 to 48 hr. Cells were fixed with 3.7% paraformaldehyde in PBS at RT for 15 min and then permeabilized with 0.1% Triton X-100. The fixed cells were incubated with primary antibodies at RT for 2 hr followed by incubation with Cy2- or Cy3-labeled secondary antibodies (Molecular Probes). Slides were mounted using Vectashield DAPI H-1200 (Vector). Cellular fluorescence images were collected using an LSM710 META laser-scanning confocal microscope (Zeiss).
To further characterize whether TDP-43 proteins are present in the nuclear matrix, consisting of proteins such as lamina A/C, we double-stained TDP-43 (green) with lamina A/C (red) (FIG. 7). The TDP-43 fibrogranular framework was partially connected to lamina A/C (FIG. 7a, the arrow indicates the colocalization area). As defective lamin A can cause progeria and the a premature aging disorder HGPS, overexpression of progeria proteins is considered a cell model of aging and allowed us to explore the mechanistic link between TDP-43 and aging or a lamin A pathology. We thus overexpressed progeria proteins and examined TDP-43 localization, the efficiency of TDP-43PLD-mediated exon 9 skipping and TDP-43 polymers. […]

For a further test, the system named is SMNA7-expressing cells. The test can be described thus: Cell viability assay of SMNA7-expressing cells. Type of test: cell-based. To be noted: 50 μM baicalein.
Description: as §1

For a further test, the target named is T2, PFN1 and SMNA7 (Homo sapiens, UniProt Q16637).
T2 construct: expressed in transfected cells
Description: Co-immunoprecipitation of PFN1 and SMNA7. Format: cell-based. To be noted: in the presence of baicalein.
Description: as §1

Test [2] has as its system TDP-43-mediated CFTR exon 9 skipping. The test can be described thus: Alternative splicing assay (in vivo splicing, CFTR minigene). Type of test: cell-based. How it is done:
Alternative Splicing Assay: TDP-43-mediated CFTR exon 9 skipping assays were performed as previously described. Briefly, cells were cotransfected with TDP-43 plasmid, hCF-(TG)13(T)5 minigenes and the indicated plasmids, including VCP/p97 wt, VCP/p97 QQ, HSPB1, lamin A or progeria, or HSPB1 siRNA. Total RNA of transfectanted cells was isolated by TRIzol reagent (Invitrogen), and RT-PCR was carried out by Superscript III (Invitrogen) using specific primers to amplify exons 8-10 of CFTR according to the manufacturer's protocol. The relative amounts of cDNA were validated on 1.3% agarose gels. […]

Where [3] appears, read: SMA mice, daily intraperitoneal baicalein 13.6 mg/kg/d from birth, 6th postnatal day, p<0.05.

T2 sequence (Q16637 1-282 isoform Q16637-3): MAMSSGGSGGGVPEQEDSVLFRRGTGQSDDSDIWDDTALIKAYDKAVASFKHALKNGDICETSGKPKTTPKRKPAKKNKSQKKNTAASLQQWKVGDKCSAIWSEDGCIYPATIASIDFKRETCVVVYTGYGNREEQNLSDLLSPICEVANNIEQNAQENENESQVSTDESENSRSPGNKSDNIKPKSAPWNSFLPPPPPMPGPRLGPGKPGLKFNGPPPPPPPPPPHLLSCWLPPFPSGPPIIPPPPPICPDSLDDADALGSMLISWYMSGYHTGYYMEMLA
T1 sequence (Q16637 1-282 isoform Q16637-3): as above

For the molecule `O=c1cc(-c2ccccc2)oc2cc(O)c(O)c(O)c12` [baicalein], in the test on SMNA7 cells, the “neurite-like structure of SMNA7 cells” value is “increased the neurite-like structure of SMNA7 cells”. Besides, the SMNA7 degradation entry at SMNA7 protein is on record as “significantly reduced SMNA7 degradation”. The “functional performance in the tube test versus control SMA mice” value with SMA mice (Smn−/−SMN2+/−) (8th postnatal day, p=0.009) is “better than that of the control SMA mice”. Moreover, the “functional performance better than control SMA mice in the negative geotaxis test” value in the test with SMA mice (Smn−/−SMN2+/−) (8th postnatal day, p=0.58) is given as “not”. In the test on SMA mice (Smn−/−SMN2+/−) (setting [3]), the “righting time (turnover test)” value is reported as “improved”, the “tilting score (negative geotaxis test)” value is recorded as “improved” and the tube score result was “improved”. In addition, in test [1], the “nuclear localization of TDP-43” value is given as “significantly induced the retention of nuclear TDP-43”. The “increase of viability of SMNA7 cells” value with SMNA7-expressing cells is on record as “approximately 2 fold”. In addition, the “interactions between PFN1 and SMNA7” value at PFN1 and SMNA7 was “significantly increased”. For the same molecule, the “CFTR exon 9 skipping” value in test [2] (VCP/p97-QQ-expressing cells) is given as “increased CFTR exon 9 skipping”. For the same molecule, in test [2] (cells co-transfected with TDP-43 and VCP/p97 R155H mutant), the “failure of TDP-43 to promote CFTR exon 9 skipping” value is given as “corrected”. Besides, in test [2] (cells expressing VCP/p97-QQ), the “dysfunction caused by FTLD/ALS-linked sporadic mutation R361S of TDP-43” value is on record as “rescued dysfunction” and the “dysfunction of proline substitution mutant GFP-TDP-43-Q303P” value was “rescued dysfunction”. In addition, the “TDP-43 dysfunction (CFTR exon 9 skipping)” value in test [2] (cells expressing progeria) is given as “rescued TDP-43 dysfunction caused by progeria in a dose-dependent manner”. Moreover, the “restoring ratio of exon skipping” value in test [2] (cells expressing progeria, baicalein 10 μm) is given as 1.31. For the same molecule, the “restoring ratio of exon skipping” value in test [2] (cells expressing progeria, baicalein 50 μm) was found to be 1.91. The “TDP-43-mediated CFTR exon 9 skipping” value in test [2] (cells treated with only baicalein, TDP-43 overexpressed) was “enhanced ability to promote the TDP-43-mediated CFTR exon 9 skipping in a dose-dependent manner”. Further, the “exon skipping of CFTR” value in test [2] (without co-overexpressing TDP-43 proteins) is reported as “no effect”.
